Assay results reported in US20260356854A1, “Prodrugs of Varenicline and Compounds Containing Vulnerable Amines” (Pfizer Inc., priority 2022, published 2026).
Where two headings read alike, the source gives them in different places.

Legend:
[1] = Moisture uptake / hygroscopicity (solid-state characterization); format: physicochemical; details: 90% RH/25 °C; crystalline anhydrous form
Method: (§1) Compound 1 is a crystalline anhydrous solid form as represented by its PXRD pattern (FIG. 1). […] Compound 1 has a melting onset of ~227 °C and is non-hygroscopic, i.e., less than 0.2% moisture uptake at 90% RH/25 °C.

[2] = Weight loss on heating (solid-state characterization); format: physicochemical; details: up to 150 °C; crystalline anhydrous form
Method: as §1

[3] = Nitrosamine formation under nitrosating conditions in solution (UPLC-MS); format: physicochemical; details: for 10 min. N—NO Level: area % by UV; for 2 h N—NO Level / 42 h N—NO Level: area % by UV (210 nm)
Method: A study was conducted to determine whether varenicline prodrug (Compound 1) forms nitrosamine under nitrosating conditions in solution as compared to varenicline. Regular UPLC-MS detection was utilized. Varenicline free base (0.1 mmol), varenicline tartrate salt (0.1 mmol), and Compound 1 (0.1 mmol) were added to separate vials. THF (2.2 ml) was added to each vial. NaNO2 (0.1 eq) and AcOH (0.1 eq) (added as a 0.1 wt % NaNO2 solution with equivalent molar of acetic acid was also added to each vial to provide a total volume of ~2.5 ml/vial.

[4] = Study to assess the bioequivalence of Compound 1 and varenicline tartrate (oral plasma concentrations); format: in vivo, monkey (non-human primates); details: monkey, capsule, 0.04 mg eq/kg
Method: FIG. 3 is a graph of the mean monkey plasma concentrations of varenicline following an oral dose of 0.04 mg eq/kg of prodrug (Compound 1) and varenicline tartrate.
A prodrug of varenicline (Compound 1) prepared as described above in Example 1 was orally dosed in capsule form to non-human primates to assess bioequivalence to varenicline tartrate API (Chantix). FIG. 3 is a graph of the mean monkey plasma concentrations of varenicline following an oral dose of 0.04 mg eq/kg of prodrug (Compound 1) and 0.04 mg eq/kg of varenicline tartrate.

[5] = tested on: chronic cigarette smokers; details: Study 3, patient-directed 0.5 mg QD to 1 mg BID, cited from earlier work
[6] = tested on: chronic cigarette smokers; details: Study 4, cited from earlier work
[7] = tested on: chronic cigarette smokers; details: total dose of 1 mg per day or 2 mg per day; six weeks; initial evidence; cited from earlier work
[8] = tested on: chronic cigarette smokers; details: Study 2, cited from earlier work; for co-confirmed continuous abstinence during weeks 9 through 12: placebo 12%; for continuously abstinent from one week after TQD through the end of treatment: placebo 8%
[9] = tested on: chronic cigarette smokers; details: Study 5, cited from earlier work
[10] = nitrosating conditions: NaNO2 0.1 eq, AcOH 0.1 eq, THF, 10 min
[11] = nitrosating conditions: NaNO2 0.1 eq, AcOH 0.1 eq, THF
[12] = varenicline 1 mg BID compared to bupropion SR or placebo

SMILES: Cc1ncc2c(c1O)[C@H](N1C[C@H]3C[C@@H](C1)c1cc4nccnc4cc13)OC2 [Compound 1, (R)-6-methyl-1-((6R,10S)-6,7,9,10-tetrahydro-8H-6,10-methanoazepino[4,5-g]quinoxalin-8-yl)-1,3-dihydrofuro[3,4-c]pyridin-7-ol]
- hygroscopicity (in words) [1]: non-hygroscopic
- moisture uptake [1]: less than 0.2%
- weight loss [2]: less than 0.1%
- nitrosamine formation under nitrosating conditions (in words) ([3]; as compared to varenicline tartrate): does not form nitrosamines
- 10 min. N—NO Level [3, 10]: Not detected
- 2 h N—NO Level [3, 11]: Not detected.
- 42 h N—NO Level [3, 11]: Not detected
- prodrug remaining in the systemic circulation ([4]; analyte prodrug): no prodrug remaining in the systemic circulation
- bioequivalence (plasma concentration over time) of the varenicline released from the prodrug ([4]; analyte varenicline, vs varenicline tartrate 0.04 mg eq/kg): comparable to varenicline tartrate

SMILES: Cl.c1cnc2cc3c(cc2n1)C1CNCC3C1 [Varenicline Free base, 5,8,14-triazatetracyclo [10.3.1.0^2,11.0^4,9]hexadeca-2(11),3,5,7,9-pentaene]
- 10 min. N—NO Level [3, 10]: Not detected
- 2 h N—NO Level [3, 11]: Not detected
- 42 h N—NO Level [3, 11]: Not detected

SMILES: O=C(O)C(O)C(O)C(=O)O.c1cnc2cc3c(cc2n1)[C@@H]1CNC[C@H]3C1 [Varenicline tartrate]
- 10 min. N—NO Level (by MS) ([3]; nitrosating conditions: NaNO2 0.1 eq, AcOH 0.1 eq, THF, 10 min, MS detection): Detectable by MS
- 10 min. N—NO Level [3, 10]: Not detected by UV
- 2 h N—NO Level [3, 11]: 0.83 A %
- 42 h N—NO Level [3, 11]: 5.15 A %

SMILES: Cl.c1cnc2cc3c(cc2n1)C1CNCC3C1 [varenicline, 5,8,14-triazatetracyclo[10.3.1.0^2,11.0^4,9]hexadeca-2(11),3,5,7,9-pentaene]
- continuously abstinent from one week after TQD through the end of treatment ([5]; placebo 9%): 29%
- co-confirmed continuous abstinence during weeks 9 through 12 ([5]; placebo 12%): 40%
- rate of co-confirmed abstinence during weeks 9 through 12, comparison in words [6, 12]: superior
- continuously abstinent from one week after TQD through the end of treatment ([6]; varenicline 1 mg BID, placebo 12%): 29%
- co-confirmed abstinence during weeks 9 through 12 ([6]; varenicline 1 mg BID, placebo 17%): 44%
- effectiveness as an aid to smoking cessation (in words) [7]: effective as an aid to smoking cessation
- co-confirmed continuous abstinence during weeks 9 through 12 ([8]; 1 mg per day (0.5 mg BID)): Forty five
- continuously abstinent from one week after TQD through the end of treatment ([8]; 1 mg per day): 31%
- co-confirmed continuous abstinence during weeks 9 through 12 ([8]; 2 mg per day (1 mg BID)): 51%
- continuously abstinent from one week after TQD through the end of treatment ([8]; 2 mg per day): 31%
- rate of co-confirmed abstinence during weeks 9 through 12, comparison in words [9, 12]: superior
- continuously abstinent from one week after TQD through the end of treatment ([9]; varenicline 1 mg BID, placebo 11%): 29%
- co-confirmed abstinence during weeks 9 through 12 ([9]; varenicline 1 mg BID, placebo 18%): 44%
